# Structures can show the parent of a compound that is named as a salt.
# Experiments:
# PAR-2 [1] = target: T1, PAR-2 (Homo sapiens, UniProt P55085); assay: PAR-2 agonist-mediated intracellular calcium dynamics assay in HCT-15 cells (modified method of Howthorne et al.); assay type: cell-based; set-up: HCT-15 cells, human colorectal cancer cell lines endogenously expressing high level of PAR-2; endogenous in cells; host or cells: HCT-15 human colorectal cancer cells; details: for EC50: HCT-15 cells endogenously expressing PAR-2, Ca2+ sensitive fluorescent dye, 2.5 mM probenecid, serum-free RPMI
# T1 sequence (P55085 26-397): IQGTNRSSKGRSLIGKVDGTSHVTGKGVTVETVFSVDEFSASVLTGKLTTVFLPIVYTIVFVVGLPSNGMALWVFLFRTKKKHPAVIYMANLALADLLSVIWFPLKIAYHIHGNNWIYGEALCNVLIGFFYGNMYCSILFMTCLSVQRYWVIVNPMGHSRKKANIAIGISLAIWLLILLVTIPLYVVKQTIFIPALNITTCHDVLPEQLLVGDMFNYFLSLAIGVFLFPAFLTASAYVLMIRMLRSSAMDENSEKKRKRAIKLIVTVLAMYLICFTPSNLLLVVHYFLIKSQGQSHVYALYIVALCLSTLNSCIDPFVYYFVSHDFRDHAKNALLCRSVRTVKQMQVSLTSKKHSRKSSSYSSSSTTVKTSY
# Text: The PAR-2 activation of peptide derivatives represented by the general formula (1) can be tested by various known methods. For example, the method of Hollenberg (Hollenberg, M.D., et al., Can. J. Physiol. Pharmacol., 75, 832-841(1997)), the method of Kawabata et al. (Kawabata, A., et al., J. Pharmacol. Exp. Ther., 288, 358-370(1999)), the method of Howthorne et al. (Howthorne et al., A High-Throughput Microtiter Plate-Based Calcium Assay for the Study of Protease-Activated Receptor 2 Activation, Analytical Biochemistry 290, 378-379(2001)), and the like can be used. The present inventors tested PAR-2 activation potency by using the modified method of Howthorne et al. More specifically the method is for assaying calcium dynamics in a cell expressing human PAR-2 intracellularly. In this assay, PAR-2 agonist mediated calcium dynamics (concentration variability) in a cell is measured by using a multiple-well plate reader wherein the cell has Ca^2+ sensitive fluorescent dye introduced and stimulated by PAR-2 agonist under probenecid, which inhibits anion-exchange transporter, present. HCT-15 cells, human colorectal cancer cell lines endogenously expressing high level of PAR-2, were plated in a black-wall clear-bottom 96 well plate. Subconfluent cells were labeled with Ca^2+ sensitive fluorescent dye (Calcium Assay Reagent, Molecular Devices) in a RPMI culture medium in the presence of 2.5 mM probenecid absence of serum, and incubated for 1 hour at 37 ° C. Thereafter, the cells were stimulated with test compounds at various concentrations, and fluorescence change was measured using a scanning fluorometer (Flex Station, Molecular Devices) using excitation wavelength of 485 nm and fluorescence wavelength of 525 nm (cut-off wavelength of 515 nm). As a comparative compound, SLIGKV(SEQ ID: NO 1) —OH which is known as PAR-2 activated peptide was used. The results are shown in TAB.1.
# PAR-2 [2] = target: T1, PAR-2; details: relative to TRAP (tethered receptor agonist peptide); cited from earlier work
"agonist activity against PAR-2 (result in words; comparator not given, presumably the comparison compound) (PAR-2 [1]; HCT-15 cells, calcium assay)",Compound,EC50 (PAR-2 [1]),intensity to activate PAR-2 relative to TRAP (PAR-2 [2])
–,"O=C(CNC(=O)[C@H](CC1CCCCC1)NC(=O)c1ccco1)NCC(=O)N[C@@H](CCCN1CCCCC1)C(=O)NCCN1CCCCC1 [Example 2, (S)-2-[(2-furoyl)-β-cyclohexyl-L-alanyl-glycyl-glycyl-amino]-5-(1-piperidinyl)pentanoic acid N-[2-(1-piperidinyl)ethyl] amide dihydrochloride]",4.1 ± 0.4 µM,–
higher agonist activity,"O=C(CNC(=O)[C@H](CC1CCCCC1)NC(=O)c1ccco1)NCC(=O)N[C@@H](CCCN1CCCCC1)C(=O)NCc1ccccc1 [Example 1, (S)-2-[(2-furoyl)-β-cyclohexyl-L-alanyl-glycyl-glycyl-amino]-5-(1-piperidinyl)pentanoic acid benzyl amide]",2.3 ± 0.3 µM,–
–,Nα-benzoyl-Arg (NO2)-Leu-NH2,–,about 1/100
